Test results from PMC11357256, “Selectivity Screening and Structure–Cytotoxic Activity Observations of Selected Oleanolic Acid (OA)-Type Saponins from the Amaranthaceae Family on a Wiade Panel of Human Cancer Cell Lines” (Molecules, 2024).

How the values were obtained:
[1] = system: A375; assay: MTT cell viability assay, A375 malignant melanoma cells; format: cell-based, human; conditions: for IC50: Homo sapiens, A-375
Description: (§1) Cell lines used in the study were grouped as follows: skin panel (melanomas: HTB140, derived from metastatic site: lymph node, ATCC Hs 294 T; malignant A375, ATCC CRL-1619; stage I primary WM793, RRID:CVCL 8787; skin keratinocytes HaCaT); prostate panel (prostate carcinomas: Du145, derived from metastatic site: brain, ATCC HTB-81; grade IV PC3, derived from metastatic site: bone, ATCC CRL-1435, LNCaP, derived from the metastatic site: lymph node, ATCC CRL-1740; prostate epithelial, PNT2, ECACC 95012613); gastrointestinal panel (colorectal adenocarcinomas: Caco2, ATCC HTB-37, HT29, ATCC HTB-38, DLD-1, ATCC CCL-221, HCT116, ATCC CCL-247, and colon epithelial cells CCD 841 CoN, ATCC CRL-1790; hepatocellular carcinoma HepG2, ATCC HB-8065); thyroid panel (follicular thyroid carcinoma FTC133, ECACC 9406090, undifferentiated thyroid carcinoma 8505C, ECACC 94090184, papillary thyroid carcinoma TPC-1, SCC147, normal thyroid follicular epithelial Nthy-ori 3–1, ECACC 90011609); and breast panel (ER-positive breast adenocarcinoma MCF7, ATCC HTB-22; ER-negative breast adenocarcinoma MDA-MB-231, ATCC HTB-26; breast epithelial MCF10A, ATCC CRL-10317). Cells were grown under standard conditions (37 °C, 5% CO2, relative humidity), and culture media (DMEM/F12 for PNT2, WM 793, HT29, PC3, FTC133, 8505 C, MDA-MB-231, TPC-1; DMEM Low Glucose for DU145; DMEM High Glucose for HTB140, A375, HaCaT; MEM with NEAA for Caco2 and MCF7; RPMI1640 with sodium pyruvate for LNCaP; DMEM/F12 with 20 ng/mL epidermal growth factor (EGF), 10 μg/mL insulin, 0.5 μg/mL hydrocortisone, 100 ng/mL cholera toxin) for MCF10A) supplemented with 10% fetal bovine serum (FBS) or 5% donor horse serum for MCF10A, and 1% antibiotics solution (10,000 U penicillin and 10 mg streptomycin/mL) […], as previously described. All cell lines, culture media, and supplements were from Sigma-Aldrich (Germany).
(§2) The cells were seeded in 96-well plates (1.5 × 10^4 cells/well). After 24 h, fresh medium was added, containing the tested compounds (0.5–100 μg/mL) and incubated for 24 or 48 h. Cell viability was determined by MTT assay, according to the manufacturer’s instructions, as described previously. Each experiment was performed in triplicate. The absorbance was measured at 570 nm using a Biotek Synergy microplate reader (BioTek Instruments Inc., Winooski, VT, USA). Cell viability was expressed as a percent of control (untreated cells). Doxorubicin was used as a reference drug.
(§3) The selectivity index (SI) was calculated from the following formula:SI = IC50 of compound in a normal cell line/IC50 of compound in cancer cell line.IC50, half maximal inhibitory concentration, is a concentration required to kill 50% of the cells.

[2] = system: MCF7; assay: MTT cell viability assay, MCF7 breast adenocarcinoma cells; format: cell-based; conditions: Homo sapiens
Description: as §1, §2

[3] = system: FTC133; assay: MTT cell viability assay, FTC133 follicular thyroid carcinoma cells; format: cell-based, human; conditions: for IC50: Homo sapiens, FTC-133
Description: as §1, §2, §3

[4] = system: CCD 841 CoN; assay: MTT cell viability assay, CCD 841 CoN normal colon epithelial cells; format: cell-based; conditions: Homo sapiens
Description: as §1, §2

[5] = system: Nthy-ori 3-1; assay: MTT cell viability assay, Nthy-ori 3-1 normal thyroid epithelial cells; format: cell-based; conditions: Homo sapiens
Description: as §1, §2

[6] = system: MCF10A; assay: MTT cell viability assay, MCF10A normal breast epithelial cells; format: cell-based; conditions: Homo sapiens, MCF-10A
Description: as §1, §2

[7] = system: WM793; assay: MTT cell viability assay, WM793 primary melanoma cells; format: cell-based, human; conditions: for IC50: Homo sapiens
Description: as §1, §2, §3

[8] = system: HCT116; assay: MTT cell viability assay, HCT116 colon cancer cells; format: cell-based; conditions: Homo sapiens, HCT-116
Description: as §1, §2

[9] = system: PC3; assay: MTT cell viability assay, PC3 prostate carcinoma cells; format: cell-based; conditions: Homo sapiens, PC-3
Description: as §1, §2

[10] = system: PNT2; assay: MTT cell viability assay, PNT2 normal prostate epithelial cells; format: cell-based; conditions: Homo sapiens
Description: as §1, §2

[11] = system: TPC-1; assay: MTT cell viability assay, TPC-1 papillary thyroid carcinoma cells; format: cell-based, human; conditions: for IC50: Homo sapiens, TPC1
Description: as §1, §2, §3

[12] = system: Caco-2; assay: MTT cell viability assay, Caco-2 colon cancer cells; format: cell-based; conditions: Homo sapiens
Description: as §1, §2

[13] = system: HTB-140; assay: MTT cell viability assay, HTB-140 metastatic melanoma cells; format: cell-based, human; conditions: for IC50: Homo sapiens
Description: as §1, §2, §3

[14] = system: 8505C; assay: MTT cell viability assay, 8505C undifferentiated thyroid carcinoma cells; format: cell-based, human; conditions: Homo sapiens, 8505C
Description: as §1, §2, §3

[15] = system: LNCaP; assay: MTT cell viability assay, LNCaP prostate adenocarcinoma cells; format: cell-based; conditions: Homo sapiens
Description: as §1, §2

[16] = system: HaCaT; assay: MTT cell viability assay, HaCaT keratinocytes; format: cell-based; conditions: Homo sapiens
Description: as §1, §2

[17] = system: DLD-1; assay: MTT cell viability assay, DLD-1 colon cancer cells; format: cell-based; conditions: Homo sapiens
Description: as §1, §2

[18] = system: HT29; assay: MTT cell viability assay, HT29 colorectal adenocarcinoma cells; format: cell-based; conditions: Homo sapiens, HT-29
Description: as §1, §2

[19] = system: MDA-MB-231; assay: MTT cell viability assay, MDA-MB-231 breast adenocarcinoma cells; format: cell-based; conditions: Homo sapiens
Description: as §1, §2

[20] = system: Du-145; assay: MTT cell viability assay, Du-145 prostate carcinoma cells; format: cell-based; conditions: Homo sapiens
Description: as §1, §2

[21] = system: HepG2; assay: MTT cell viability assay, HepG2 hepatocellular carcinoma cells; format: cell-based; conditions: Homo sapiens
Description: as §1, §2

Structure (SMILES): CC1(C)CC[C@]2(C(=O)O[C@@H]3O[C@H](CO)[C@@H](O)[C@H](O)[C@H]3O)CC[C@]3(C)C(=CC[C@@H]4[C@@]5(C)CC[C@H](O[C@@H]6O[C@H](C(=O)O)[C@@H](O)[C@H](O)[C@H]6O)C(C)(C)[C@@H]5CC[C@]43C)[C@@H]2C1 [ChIVa, 3-O-β-D-glucuronopyranosyl oleanolic acid 28-O-β-D-glucopyranosyl ester]
- IC50 ([1]; A375, 24 h): 1.6 µg/mL
- IC50 ([1]; A375, 48 h): 0.6 µg/mL
- Selectivity Index (SI) ([1]; IC50 HaCaT / IC50 A375, 24 h): 4.6
- IC50 ([2]; MCF7, 24 h): > 100 µg/mL
- IC50 ([2]; MCF7, 48 h): > 100 µg/mL
- IC50 ([2]; MCF7, MCF-7, incubation time not stated): > 100 µg/mL
- IC50 ([3]; FTC133, 24 h): 8.5 µg/mL
- IC50 ([3]; FTC133, 48 h): 4 µg/mL
- Selectivity Index (SI) ([3]; IC50 Nthy-ori 3-1 / IC50 FTC133, 24 h): > 11.76
- Selectivity Index (SI) ([3]; IC50 Nthy-ori 3-1 / IC50 FTC133, 48 h): > 25.1
- IC50 ([4]; 24 h): > 100 µg/mL
- IC50 ([4]; 48 h): > 100 µg/mL
- IC50 ([5]; 24 h): > 100 µg/mL
- IC50 ([5]; 48 h): > 100 µg/mL
- IC50 ([6]; 24 h): > 100 µg/mL
- IC50 ([6]; 48 h): > 100 µg/mL
- IC50 ([7]; WM793, 24 h): 18.5 µg/mL
- IC50 ([7]; WM793, 48 h): 4.4 µg/mL
- Selectivity Index (SI) ([7]; IC50 HaCaT / IC50 WM793, 24 h): 0.4
- Selectivity Index (SI) ([7]; IC50 HaCaT / IC50 WM793, 48 h): 0.7
- IC50 ([8]; HCT116, 24 h): > 100 µg/mL
- IC50 ([8]; HCT116, 48 h): 78.2 µg/mL
- IC50 ([9]; PC3, 24 h): 45.6 µg/mL
- IC50 ([9]; PC3, 48 h): 22.8 µg/mL
- IC50 ([10]; 24 h): > 100 µg/mL
- IC50 ([10]; 48 h): > 100 µg/mL
- IC50 ([11]; TPC-1, 24 h): > 100 µg/mL
- IC50 ([11]; TPC-1, 48 h): 81.8 µg/mL
- Selectivity Index (SI) ([11]; IC50 Nthy-ori 3-1 / IC50 TPC-1, 48 h): > 1.2
- IC50 ([12]; Caco-2, 24 h): 69 µg/mL
- IC50 ([12]; Caco-2, 48 h): 15.8 µg/mL
- IC50 ([13]; HTB-140, 24 h): 15 µg/mL
- IC50 ([13]; HTB-140, 48 h): 8.7 µg/mL
- Selectivity Index (SI) ([13]; IC50 HaCaT / IC50 HTB-140, 24 h): 0.5
- Selectivity Index (SI) ([13]; IC50 HaCaT / IC50 HTB-140, 48 h): 0.4
- IC50 ([14]; 24 h): > 100 µg/mL
- IC50 ([14]; 48 h): > 100 µg/mL
- IC50 ([15]; 24 h): > 100 µg/mL
- IC50 ([15]; 48 h): > 100 µg/mL
- IC50 ([16]; 24 h): 7.3 µg/mL
- IC50 ([16]; 48 h): 3.1 µg/mL
- IC50 ([17]; DLD-1, 24 h): > 100 µg/mL
- IC50 ([17]; DLD-1, 48 h): 50.3 µg/mL
- IC50 ([18]; HT29, 24 h): 14.9 µg/mL
- IC50 ([18]; HT29, 48 h): 5.6 µg/mL
- IC50 ([19]; MDA-MB-231, 24 h): > 100 µg/mL
- IC50 ([19]; MDA-MB-231, 48 h): 98.1 µg/mL
- IC50 ([20]; DU-145, 24 h): 22.9 µg/mL
- IC50 ([20]; DU-145, 48 h): 9.1 µg/mL
- IC50 ([21]; HepG2, 24 h): 30 µg/mL
- IC50 ([21]; HepG2, 48 h): 20.9 µg/mL
